Data reported in US20250197372A1 (priority 2020, published 2025).

What was measured:
[1] = molecular target: T1, recombinant alpha-glucosidase I (human full-length glucosidase I, Glu 1) (Homo sapiens, UniProt Q13724); experiment: Alpha-glucosidase I assay (Amplex Red glucose detection, synthetic trisaccharide substrate); assay type: biochemical; conditions: Glucosidase 1; read-out: Glu 1 IC50
T1 construct: 6-His (C); made in house; host or cells: HEK-293T cells transduced with BacMam virus (virus raised in Sf9)
T1 sequence (Q13724 1-837): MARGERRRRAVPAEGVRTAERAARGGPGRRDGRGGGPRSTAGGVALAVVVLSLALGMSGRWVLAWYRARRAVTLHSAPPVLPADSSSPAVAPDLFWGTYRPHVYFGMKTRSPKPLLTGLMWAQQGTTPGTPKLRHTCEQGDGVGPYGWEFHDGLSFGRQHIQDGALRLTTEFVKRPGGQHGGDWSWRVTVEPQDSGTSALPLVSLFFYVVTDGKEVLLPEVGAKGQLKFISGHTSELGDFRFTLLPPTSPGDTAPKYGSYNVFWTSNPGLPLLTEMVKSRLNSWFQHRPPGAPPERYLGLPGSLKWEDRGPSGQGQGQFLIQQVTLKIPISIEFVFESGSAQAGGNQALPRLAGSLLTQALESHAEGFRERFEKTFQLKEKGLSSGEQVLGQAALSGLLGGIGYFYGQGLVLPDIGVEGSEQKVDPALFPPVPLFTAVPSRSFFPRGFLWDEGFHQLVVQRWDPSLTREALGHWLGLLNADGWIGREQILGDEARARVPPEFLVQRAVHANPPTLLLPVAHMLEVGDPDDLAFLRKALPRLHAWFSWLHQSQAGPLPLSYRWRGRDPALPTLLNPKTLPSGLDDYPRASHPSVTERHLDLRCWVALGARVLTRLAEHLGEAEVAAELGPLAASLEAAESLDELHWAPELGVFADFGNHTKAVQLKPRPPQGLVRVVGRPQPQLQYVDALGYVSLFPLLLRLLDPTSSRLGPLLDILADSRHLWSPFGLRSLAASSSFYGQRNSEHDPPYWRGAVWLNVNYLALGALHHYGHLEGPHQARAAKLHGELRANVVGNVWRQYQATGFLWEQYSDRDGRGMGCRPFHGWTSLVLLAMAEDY
How it was run: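 Compound dilution series incubated 60 min at 37° C with recombinant His-tagged human glucosidase I ([…]), after which trisaccharide substrate analog was added for 90 min at 37° C. Reaction quenched with 1.5M Tris pH 8; D-glucose detected by Amplex Red fluorescence, 560/590 nm. 4-PL curve fit of percent inhibition gave IC50.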

[2] = molecular target: rat sucrase (partially purified alpha-glucosidase from intestinal rat powder) (Rattus norvegicus, UniProt P23739); experiment: Intestinal alpha-glucosidase assay, sucrose substrate (Glucose GO Kit); assay type: biochemical
How it was run: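 Glucose release is the read-out: compounds at multiple dilutions are first held with partially purified rat intestinal alpha-glucosidase for 60 min at 37 °C, after which maltose or sucrose substrate reacts for 30 min at 37 °C before a 5 min 90 °C stop. IC50 comes from a four-parameter logistic fit.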

Sequence of rat sucrase (partially purified alpha-glucosidase from intestinal rat powder) (P23739 whole entry): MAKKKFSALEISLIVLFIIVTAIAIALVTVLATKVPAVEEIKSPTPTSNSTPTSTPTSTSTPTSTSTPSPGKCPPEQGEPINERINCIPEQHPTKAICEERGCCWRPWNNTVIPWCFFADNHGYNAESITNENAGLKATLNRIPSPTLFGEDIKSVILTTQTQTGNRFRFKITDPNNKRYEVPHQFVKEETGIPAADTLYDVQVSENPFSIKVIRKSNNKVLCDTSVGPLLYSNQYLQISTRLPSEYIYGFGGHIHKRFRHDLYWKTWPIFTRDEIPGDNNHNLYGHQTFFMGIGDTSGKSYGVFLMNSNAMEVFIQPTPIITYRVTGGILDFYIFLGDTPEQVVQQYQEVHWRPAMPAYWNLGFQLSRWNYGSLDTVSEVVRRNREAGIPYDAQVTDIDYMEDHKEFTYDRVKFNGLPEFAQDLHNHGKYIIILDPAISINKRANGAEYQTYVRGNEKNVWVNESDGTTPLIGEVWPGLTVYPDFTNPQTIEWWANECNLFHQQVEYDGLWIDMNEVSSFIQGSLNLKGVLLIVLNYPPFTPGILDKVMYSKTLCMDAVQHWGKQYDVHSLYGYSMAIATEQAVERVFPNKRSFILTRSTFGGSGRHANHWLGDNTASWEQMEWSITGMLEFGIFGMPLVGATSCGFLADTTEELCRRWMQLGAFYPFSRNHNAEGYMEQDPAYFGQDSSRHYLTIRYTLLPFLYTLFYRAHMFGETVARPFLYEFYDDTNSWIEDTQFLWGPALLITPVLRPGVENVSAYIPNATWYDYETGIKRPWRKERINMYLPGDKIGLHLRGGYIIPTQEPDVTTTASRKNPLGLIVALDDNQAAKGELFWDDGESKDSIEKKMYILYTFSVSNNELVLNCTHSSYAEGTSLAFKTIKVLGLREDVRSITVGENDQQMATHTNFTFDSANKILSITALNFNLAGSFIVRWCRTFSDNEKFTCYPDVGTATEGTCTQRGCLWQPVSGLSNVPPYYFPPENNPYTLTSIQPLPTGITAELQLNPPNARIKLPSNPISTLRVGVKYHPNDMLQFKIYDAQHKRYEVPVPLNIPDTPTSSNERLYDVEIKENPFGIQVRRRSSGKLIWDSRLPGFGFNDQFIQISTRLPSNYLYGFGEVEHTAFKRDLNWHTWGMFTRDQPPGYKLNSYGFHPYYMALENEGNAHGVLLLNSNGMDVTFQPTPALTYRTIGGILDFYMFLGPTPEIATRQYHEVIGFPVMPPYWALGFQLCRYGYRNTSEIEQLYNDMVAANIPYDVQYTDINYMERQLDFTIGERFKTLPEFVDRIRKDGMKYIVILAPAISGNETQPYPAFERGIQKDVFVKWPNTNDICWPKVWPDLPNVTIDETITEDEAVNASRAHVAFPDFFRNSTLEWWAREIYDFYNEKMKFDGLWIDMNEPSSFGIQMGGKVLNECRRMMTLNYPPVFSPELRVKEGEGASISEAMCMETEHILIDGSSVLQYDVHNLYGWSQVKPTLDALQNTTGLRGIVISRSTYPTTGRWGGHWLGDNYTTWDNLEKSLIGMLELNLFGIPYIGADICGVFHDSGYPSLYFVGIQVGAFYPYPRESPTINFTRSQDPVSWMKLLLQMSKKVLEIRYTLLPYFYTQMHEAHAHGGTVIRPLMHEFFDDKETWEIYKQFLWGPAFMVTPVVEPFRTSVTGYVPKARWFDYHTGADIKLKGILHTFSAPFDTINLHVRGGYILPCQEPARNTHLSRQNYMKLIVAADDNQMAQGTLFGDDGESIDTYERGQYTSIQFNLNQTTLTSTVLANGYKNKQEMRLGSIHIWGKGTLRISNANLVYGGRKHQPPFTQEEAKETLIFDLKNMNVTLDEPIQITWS

Row | Compound | IC50 [1] [µM] | IC50 [2] [µM]
1 | Cc1cc(NCc2cccc(CN3C[C@H](O)[C@@H](O)[C@H](O)[C@H]3CO)n2)cc(-c2ncccn2)c1 [Compound 1322, (2R,3R,4R,5S)-2-(hydroxymethyl)-1-{[6-({[3-methyl-5-(pyrimidin-2-yl)phenyl]amino}methyl)pyridin-2-yl]methyl}piperidine-3,4,5-triol] | 3.12 | 0.481
2 | Cc1cc(NCc2ccc(CN3C[C@H](O)[C@@H](O)[C@H](O)[C@H]3CO)cc2)cc(-n2ccnn2)c1 [Compound 1323, (2R,3R,4R,5S)-2-(hydroxymethyl)-1-{[4-({[3-methyl-5-(1H-1,2,3-triazol-1-yl)phenyl]amino}methyl)phenyl]methyl}piperidine-3,4,5-triol] | 0.011 | 0.037
3 | OC[C@@H]1[C@@H](O)[C@H](O)[C@@H](O)CN1Cc1cnc(CNc2cc(-c3ncccn3)cc(C3CC3)c2)cn1 [Compound 1329, (2R,3R,4R,5S)-1-{[5-({[3-cyclopropyl-5-(pyrimidin-2-yl)phenyl]amino}methyl)pyrazin-2-yl]methyl}-2-(hydroxymethyl)piperidine-3,4,5-triol] | 1.87 | 0.675
4 | Cc1cc(NCc2cnc(CN3C[C@H](O)[C@@H](O)[C@H](O)[C@H]3CO)cn2)cc(-c2ccc[nH]2)c1 [Compound 1330, (2R,3R,4R,5S)-2-(hydroxymethyl)-1-{[5-({[3-methyl-5-(1H-pyrrol-2-yl)phenyl]amino}methyl)pyrazin-2-yl]methyl}piperidine-3,4,5-triol] | 1.42 | 0.595
5 | Cc1cc(NCc2cnc(CN3C[C@H](O)[C@@H](O)[C@H](O)[C@H]3CO)cn2)cc(N2CCOCC2)c1 [Compound 1332, (2R,3R,4R,5S)-2-(hydroxymethyl)-1-{[5-({[3-methyl-5-(morpholin-4-yl)phenyl]amino}methyl)pyrazin-2-yl]methyl}piperidine-3,4,5-triol] | 2.82 | 3.5
6 | OC[C@@H]1[C@@H](O)[C@H](O)[C@@H](O)CN1Cc1cccc(CNc2cc(-c3ncccn3)cc(C3CC3)c2)n1 [Compound 1333, (2R,3R,4R,5S)-1-{[6-({[3-cyclopropyl-5-(pyrimidin-2-yl)phenyl]amino}methyl)pyridin-2-yl]methyl}-2-(hydroxymethyl)piperidine-3,4,5-triol] | 4.53 | 1.59
7 | Cc1cc(NCc2cccc(CN3C[C@H](O)[C@@H](O)[C@H](O)[C@H]3CO)n2)cc(-c2ccco2)c1 [Compound 1334, (2R,3R,4R,5S)-1-{[6-({[3-(furan-2-yl)-5-methylphenyl]amino}methyl)pyridin-2-yl]methyl}-2-(hydroxymethyl)piperidine-3,4,5-triol] | 1.08 | 0.336
8 | Cc1cc(NCc2cccc(CN3C[C@H](O)[C@@H](O)[C@H](O)[C@H]3CO)n2)cc(N2CCOCC2)c1 [Compound 1336, (2R,3R,4R,5S)-2-(hydroxymethyl)-1-{[6-({[3-methyl-5-(morpholin-4-yl)phenyl]amino}methyl)pyridin-2-yl]methyl}piperidine-3,4,5-triol] | 30.3 | 21.3
9 | COc1ccc(C#CCCCCCN2C[C@H](O)[C@@H](O)[C@H](O)[C@H]2CO)cc1 [Compound 1338, (2R,3R,4R,5S)-2-(hydroxymethyl)-1-[7-(4-methoxyphenyl)hept-6-yn-1-yl]piperidine-3,4,5-triol] | 0.999 | 0.371
